Measured values: patent publication US7067508B2, “Diaminedithiol derivatives and radiorhenium or radiotechnetium complex thereof; a liver cancer-treating composition comprising the radiorhenium complex and lipiodol; and a kit for preparation of the liver cancer-treating composition” (Seoul National University Industry Foundation, priority 2001, dated 2006)

Assay: Biodistribution of 188Re-labelled compounds in lipiodol solution in mice after tail vein injection
Assay type: in vivo
Settings: mice (ICR)
Experimental: To the ^188Re-labelled reaction mixture prepared in the foregoing Examples 4 to 6, lipiodol (5 ml) was added, mixed well and the solution was centrifuged at 3000 rpm for 10 min. The supernatant was removed and 2 ml saline was added. After mixing well, the resulting solution was centrifuged again at 3000 rpm for 10 min and the supernatant was removed to recover a lower phase of lipiodol.
Mice (ICR) were administered with an injection of ^188Re-labelled compound in lipiodol solution which was prepared in the Example 7 via the tail vein. Radioactivity distributed in tissues and weight of each tissue were measured to calculate the percentage of radioactivity per gram of unit tissue relative to total radioactivity administered.
As radiation accumulation mechanism in the lung and the liver cancer are similar, it is convenient to detect the level of radiation accumulating in the lung of a mouse suffering from liver cancer. […] Therefore, it can be inferred that a radiorhenium complex of a diaminedithiol derivative having a long side chain is effective for treating liver cancer.

CCCCCCCC[N+]12CC[N]3CC(C)(C)[S][188Re-]31(=[O])[S]C(C)(C)C2 (centres unmarked) [^188Re-OTDD]
Biodistribution, radioactivity in Blood (10 min post-injection): 5.2 ± 1.8 percentage of radioactivity per gram
Biodistribution, radioactivity in Fat (10 min post-injection): 3.6 ± 0.7 percentage of radioactivity per gram
Biodistribution, radioactivity in Heart (10 min post-injection): 6.3 ± 1.7 percentage of radioactivity per gram
Biodistribution, radioactivity in Kidney (10 min post-injection): 8.0 ± 1.2 percentage of radioactivity per gram
Biodistribution, radioactivity in Liver (10 min post-injection): 15.1 ± 2.4 percentage of radioactivity per gram
Biodistribution, radioactivity in Lung (10 min post-injection): 138.4 ± 19.8 percentage of radioactivity per gram
Biodistribution, radioactivity in Muscle (10 min post-injection): 1.5 ± 0.2 percentage of radioactivity per gram
Biodistribution, radioactivity in Small intestine (10 min post-injection): 3.6 ± 0.3 percentage of radioactivity per gram
Biodistribution, radioactivity in Spleen (10 min post-injection): 2.6 ± 0.3 percentage of radioactivity per gram
Biodistribution, radioactivity in Stomach (10 min post-injection): 3.5 ± 1.3 percentage of radioactivity per gram
Biodistribution, radioactivity in Blood (30 min post-injection): 3.8 ± 0.4 percentage of radioactivity per gram
Biodistribution, radioactivity in Fat (30 min post-injection): 2.2 ± 0.2 percentage of radioactivity per gram
Biodistribution, radioactivity in Heart (30 min post-injection): 4.4 ± 0.3 percentage of radioactivity per gram
Biodistribution, radioactivity in Kidney (30 min post-injection): 6.6 ± 0.3 percentage of radioactivity per gram
Biodistribution, radioactivity in Liver (30 min post-injection): 21.6 ± 4.9 percentage of radioactivity per gram
Biodistribution, radioactivity in Lung (30 min post-injection): 97.4 ± 20.7 percentage of radioactivity per gram
Biodistribution, radioactivity in Muscle (30 min post-injection): 1.2 ± 0.2 percentage of radioactivity per gram
Biodistribution, radioactivity in Small intestine (30 min post-injection): 8.0 ± 2.0 percentage of radioactivity per gram
Biodistribution, radioactivity in Spleen (30 min post-injection): 2.3 ± 0.1 percentage of radioactivity per gram
Biodistribution, radioactivity in Stomach (30 min post-injection): 12.9 ± 6.6 percentage of radioactivity per gram
Biodistribution, radioactivity in Blood (1 hr post-injection): 3.1 ± 0.5 percentage of radioactivity per gram
Biodistribution, radioactivity in Fat (1 hr post-injection): 1.6 ± 0.4 percentage of radioactivity per gram
Biodistribution, radioactivity in Heart (1 hr post-injection): 2.7 ± 1.0 percentage of radioactivity per gram
Biodistribution, radioactivity in Kidney (1 hr post-injection): 5.6 ± 0.9 percentage of radioactivity per gram
Biodistribution, radioactivity in Liver (1 hr post-injection): 20.1 ± 3.3 percentage of radioactivity per gram
Biodistribution, radioactivity in Lung (1 hr post-injection): 87.0 ± 13.2 percentage of radioactivity per gram
Biodistribution, radioactivity in Muscle (1 hr post-injection): 0.9 ± 0.2 percentage of radioactivity per gram
Biodistribution, radioactivity in Small intestine (1 hr post-injection): 13.0 ± 3.7 percentage of radioactivity per gram
Biodistribution, radioactivity in Spleen (1 hr post-injection): 1.9 ± 0.6 percentage of radioactivity per gram
Biodistribution, radioactivity in Stomach (1 hr post-injection): 11.1 ± 3.1 percentage of radioactivity per gram
Biodistribution, radioactivity in Blood (3 hr post-injection): 2.8 ± 0.3 percentage of radioactivity per gram
Biodistribution, radioactivity in Fat (3 hr post-injection): 1.3 ± 0.4 percentage of radioactivity per gram
Biodistribution, radioactivity in Heart (3 hr post-injection): 1.9 ± 0.4 percentage of radioactivity per gram
Biodistribution, radioactivity in Kidney (3 hr post-injection): 4.0 ± 0.5 percentage of radioactivity per gram
Biodistribution, radioactivity in Liver (3 hr post-injection): 19.7 ± 6.7 percentage of radioactivity per gram
Biodistribution, radioactivity in Lung (3 hr post-injection): 61.6 ± 10.0 percentage of radioactivity per gram
Biodistribution, radioactivity in Muscle (3 hr post-injection): 0.5 ± 0.1 percentage of radioactivity per gram
Biodistribution, radioactivity in Small intestine (3 hr post-injection): 23.4 ± 0.3 percentage of radioactivity per gram
Biodistribution, radioactivity in Spleen (3 hr post-injection): 1.8 ± 0.3 percentage of radioactivity per gram
Biodistribution, radioactivity in Stomach (3 hr post-injection): 15.5 ± 6.6 percentage of radioactivity per gram
Biodistribution, radioactivity in Blood (24 hr post-injection): 0.6 ± 0.0 percentage of radioactivity per gram
Biodistribution, radioactivity in Fat (24 hr post-injection): 0.4 ± 0.1 percentage of radioactivity per gram
Biodistribution, radioactivity in Heart (24 hr post-injection): 0.7 ± 0.1 percentage of radioactivity per gram
Biodistribution, radioactivity in Kidney (24 hr post-injection): 1.5 ± 0.4 percentage of radioactivity per gram
Biodistribution, radioactivity in Liver (24 hr post-injection): 7.3 ± 1.5 percentage of radioactivity per gram
Biodistribution, radioactivity in Lung (24 hr post-injection): 22.8 ± 3.3 percentage of radioactivity per gram
Biodistribution, radioactivity in Muscle (24 hr post-injection): 0.2 ± 0.0 percentage of radioactivity per gram
Biodistribution, radioactivity in Small intestine (24 hr post-injection): 19.8 ± 12.0 percentage of radioactivity per gram
Biodistribution, radioactivity in Spleen (24 hr post-injection): 2.0 ± 2.0 percentage of radioactivity per gram
Biodistribution, radioactivity in Stomach (24 hr post-injection): 3.6 ± 1.8 percentage of radioactivity per gram
